What was measured:
Format in all cases: in vivo, human
[1] = Malabsorption Blood Test (MBT): serum levels of PA and HA after oral PA and THA test breakfast meal in healthy control subjects
Procedure: (§1) Both whole post-absorptive serum and isolated chylomicron fractions of the serum are analyzed for fatty acid composition. Chylomicrons are isolated from plasma by centrifugation at d=1.006 g/ml for 30 minutes at 26,000 g (Hatch, F. T., et al., 1968; Adv. Lipid Res., 6:1-68). Total lipids are extracted from each specimen following the method of Bligh and Dyer (Bligh, E. G., et al., 1959; Can. J. Biochem., 37:911-917). Following transmethylation of the lipid extracts using BF3-methanol, fatty acid composition is determined using gas-liquid chromatographic (GLC) analysis using a Hewlett Packard GLC equipped with a flame ionization detector, an automatic 7673 sampler and […]×0.25 mm ID column composed of a 0.20 micron film of SP-2560 (Supelco, Bellefonte, Pa.) (Morrison, W., et al., 1964; J. Lipid Res. 5:600-608). The temperature is programmed to change from 140° C. to 240° C. at a rate of 4° C./minute. At the time of extraction, heptadecanoic methyl ester is added as an internal standard.
Healthy control subjects between 18 and 50 years of age were selected. Exclusion criteria included: any chronic illness known to affect nutrient absorption, body mass index (BMI) <21 or >30 kg/m^2 (generally accepted healthy adult ranges), therapy with lipid lowering drugs, diabetes mellitus (NIDDM and IDDM), disorders associated with altered energy metabolism (e.g., hypothyroidism) and disinterest in participating in all three dosing experiments. This adult age range was selected for several reasons: (a) adult subjects are likely to remain committed to all three components of the study; (b) adults will understand the need to provide reliable feedback on taste and tolerance of the test breakfast meal and the entire malabsorption test procedure; and (c) adult subjects are able to plan the experimental day for full cooperation with the multiple phlebotomy events from 0700 to 1500 hours.
Upon arrival at the study center, subjects had their weight and height measured and an experienced phlebotomist inserted a self-retaining intravenous catheter with a heparin lock for serial blood sampling. After initially drawing 2 milliliters of blood into a sterile syringe, the experimental blood sample (2 milliliters) was drawn and immediately stored in a 4-milliliter serum separator tube. Thereafter, the initial 2 milliliters of blood was infused back into the catheter followed by 2 milliliters of heparin flush. After the baseline blood samples were obtained, the subjects drank an approximately 8 to 12 ounce liquid test breakfast meal. This meal contained one to three doses of PA and THA in a random distribution. Subjects were asked to consume the test breakfast meal within five minutes. Thereafter, serial blood samples were obtained at regular intervals over a period ranging from 30 minutes to 24 hours. During the initial eight-hour period, subjects were permitted to ingest non-caloric and non-caffeinated beverages. A study protocol lunch of known fat content was provided and actual food intake was recorded. Ambulation was limited to maintain adherence to the 30 to 60 minute intervals in the blood sampling schedule. After completion of the blood sampling, the catheter was removed, a snack was offered, and the subjects were encouraged to consume a full meal. The lipid doses (mg/kg) of PA and THA used in this experiment were based on doses 10-fold higher than similar fats used to correct essential fatty acid deficiency in cystic fibrosis, and previous studies which used ^13C […] to qualitatively assess fat malabsorption in pancreatic disease (Rosenlund, M. L., et al., 1977;Pediatrics, 59:428-32; Wutzke, K. D., et al., 1999; J. Pediatr. Gastroenterol. Nutr., 29:148-54).
Four healthy control subjects were administered a dose of 30 mg/kg PA and 30 mg/kg THA in the digestible composition (a liquid breakfast shake) after a 12-hour fast. Blood was drawn at baseline before consumption of the shake and then every 30 minutes thereafter until hour 6. […]

[2] = MBT absorption of PA and HA prior to Orlistat in fifteen healthy subjects; conditions: PA 2.5 grams and THA 8.0 grams, FIG. 10, 11
Excerpt: Fifteen healthy adult subject volunteers (9 women) 18 to 50 years of age were recruited through local advertisements. Exclusion criteria included: any chronic illness known to affect nutrient absorption, body mass index (BMI) of less than 21 or greater than 30 kg/m^2 (i.e., outside of generally accepted healthy adult ranges), therapy with lipid lowering drugs, diabetes mellitus (NIDDM, IDDM) and disorders associated with altered energy metabolism (e.g., hypothyroidism). This adult age range was selected because Orlistat is FDA approved in adults. In addition, adults are able to plan the experimental days for cooperation with four days of the research study diet, outpatient 72-hour stool collection and phlebotomy requirements. […]
Subjects underwent a 12-hour fast from 2100 hours on day #1 of the study. […] Upon arrival at the study center on the morning of day #2, subjects had their weight and height measured, and an experienced phlebotomist inserted a self-retaining intravenous catheter with a heparin lock for serial blood sampling. […] The number and timing of blood samples was determined by the experiments in Example 1, and was expected to be six or fewer samples over an eight-hour or less time period. […]

[3] = MBT serum levels of PA and HA in subjects with CF and pancreatic insufficiency on and off pancreatic enzymes
Procedure: as §1
Subjects with CF and pancreatic insufficiency currently treated with pancreatic enzymes, aged greater than 8 years were recruited. Exclusion criteria included: forced expiratory volume of the lungs at 1 second (FEV1) <40%, a history of fibrosing colonopathy or significant bowel resection (>10 cm), mental retardation, significant neurological deficit, developmental disability and autism. Subjects are in their usual state of good health. This age range was selected because it includes children during active growth where information regarding degree of malabsorption leads to improved nutritional intervention and pancreatic enzyme therapy. Also, children greater than 8 years of age are mature enough to provide assent and feedback concerning acceptability and tolerance of the MBT.
In the experiments shown in FIGS. 12 through 15, three subjects with CF were given either 30 mg/kg PA and 60 mg/kg THA (2 subjects) or 30 mg/kg PA and 90 mg/kg THA (1 subject) in a digestible composition consisting of a liquid breakfast shake after a 12 hour fast. The subjects were tested while they were taking their usual doses of pancreatic enzymes and then were tested again (more than one week later) when they were not taking pancreatic enzymes. Blood was sampled at baseline and then at hourly intervals from 2 to 8 hours and then sampled again at 24 hours. Subjects were fed a prepared lunchtime meal with a known quantity of fat (80 grams). The individual results for fat absorption for the 3 subjects with CF on enzymes are presented in FIG. 12 for PA and FIG. 13 for HA. For the same 3 subjects with CF off enzymes, the results for fat absorption are presented in FIG. 14 for PA and FIG. 15 for HA.
Additional experiments were performed on six subjects with CF either on or off pancreatic enzyme treatment. The serum levels of PA and HA in these six subjects on and off pancreatic enzyme treatment are presented in FIG. 16 anf FIG. 17, respectively.

[4] = four healthy control subjects, 30 mg/kg PA and 60 mg/kg THA, FIG. 3A, 4, 5A
[5] = four healthy control subjects, 30 mg/kg PA and 90 mg/kg THA, FIG. 6-8

CCCCCCCCCCCCCCC(=O)O [PA, pentadecanoic acid]
delay before rise in serum concentration ([1]; four healthy control subjects, 30 mg/kg PA and 30 mg/kg THA, liquid breakfast shake after 12-hour fast, FIG. 2): approximately half | time at which increase in serum level is evident / begins [1, 4]: ≤ 2 h | time of peak serum level [1, 4]: 6 h | time at which increase in serum level is evident [1, 5]: ≤ 2 h | time of peak serum level [1, 5]: 6 h | peak serum level ([1]; four healthy control subjects, 30 mg/kg PA and either 60 or 90 mg/kg THA oral at baseline, FIG. 1 model): approximately 4 mg/dL | time of peak serum level ([1]; four healthy control subjects, 30 mg/kg PA and either 60 or 90 mg/kg THA oral, FIG. 1 model): six | concentration at 8 h ([1]; human, serum, four healthy control subjects, 30 mg/kg PA and either 60 or 90 mg/kg THA oral, FIG. 1 model, read-out: serum level by eight hours post dose): ~10000 ng/mL | pattern of serum response ([1]; six healthy volunteers, PA 2.5 grams and THA 5.0 or 8.0 grams, FIG. 3B): increasing over the first two hours and remaining elevated through hour six | average absorption [2]: approximately 65% | hour by which serum levels increased ([3]; subjects with CF off pancreatic enzymes): ≤ 2 h | hour by which increase in absorption was evident ([3]; subjects with CF on pancreatic enzymes): ≤ 2 h | serum levels compared with healthy control subjects ([3]; subjects with CF taking pancreatic enzymes): lower
